The values that follow come from ChEMBL document CHEMBL1126245, “Synthesis and anti-HIV activity of 9-[c-4,t-5-bis(hydroxymethyl)cyclopent-2-en-r-1-yl]-9H-adenine” (J Med Chem, 1992).

Converted amounts (≈) assume the structure as drawn.

One series relates to MT4. Nature of the series: In vitro antiviral activity against HIV-1 in MT-4 Cell. The series is classed as functional. The following applies: Homo sapiens; for EC50: read-out: ED50 (the source's name); for IC50: read-out: ID50 (the source's name).
A short description of series [1]: Therapeutic index (TI) was determined by dividing the ID50 by the ED50. To be noted: human, MT4 cells; read-out: TI. In kind it is cell-based.

In the case of `Nc1nc(O)c2ncn(C3C=CC(CO)C3CO)c2n1` (stereo not given), in the series with MT4, the EC50 was above 100 µg/mL and the IC50 is above 100 µg/mL.

Turning to `Nc1ccn([C@H]2CC[C@@H](CO)O2)c(=O)n1` [ZALCITABINE], in the series on MT4, the EC50 was 0.011 µg/mL (≈ 0.0521 µM) and the IC50 stood at 27 µg/mL (≈ 128 µM). Besides, the selectivity ratio in series [1] stood at 2450.
